Results reported in ChEMBL document CHEMBL1126040 (J Med Chem, 1992).

Columns and labels:
[1] = biological target: Sodium-dependent dopamine transporter (Rattus norvegicus, UniProt P23977); assay: Inhibition of […] binding to the dopamine transporter in rat striatal membranes.; assay type: cell membranes, Membrane
[2] = biological target: Sodium-dependent dopamine transporter (Rattus norvegicus) (UniProt P23977); assay: In vitro ability to inhibit the [3H]WIN-35428 binding to cocaine binding site on dopamine transporter in rat striatal membranes irreversibly after two washes.; assay type: cell membranes; set-up: concentration or dose not given beside the values; settings: Striatum; Membrane
Sodium-dependent dopamine transporter (Rattus norvegicus), sequence (P23977 whole entry): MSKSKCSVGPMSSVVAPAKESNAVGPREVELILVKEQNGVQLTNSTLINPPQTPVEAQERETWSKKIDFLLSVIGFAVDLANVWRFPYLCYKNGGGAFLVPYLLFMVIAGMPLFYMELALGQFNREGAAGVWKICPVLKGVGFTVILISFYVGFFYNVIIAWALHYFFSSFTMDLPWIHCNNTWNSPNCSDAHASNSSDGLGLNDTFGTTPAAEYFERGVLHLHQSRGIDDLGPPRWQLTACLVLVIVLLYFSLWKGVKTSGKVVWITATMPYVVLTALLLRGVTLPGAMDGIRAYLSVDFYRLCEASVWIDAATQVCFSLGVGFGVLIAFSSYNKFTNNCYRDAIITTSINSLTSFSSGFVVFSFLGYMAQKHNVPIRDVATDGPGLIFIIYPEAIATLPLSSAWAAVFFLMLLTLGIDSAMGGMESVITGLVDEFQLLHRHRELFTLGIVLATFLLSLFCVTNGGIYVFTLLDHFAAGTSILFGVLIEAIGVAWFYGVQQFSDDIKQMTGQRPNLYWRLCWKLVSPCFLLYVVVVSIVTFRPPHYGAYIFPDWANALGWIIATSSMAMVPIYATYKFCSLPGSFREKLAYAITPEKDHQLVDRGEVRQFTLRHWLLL

[3] = biological target: Sodium-dependent dopamine transporter (Rattus norvegicus) (UniProt P23977); assay: In vitro ability to inhibit the [3H]WIN-35428 binding to cocaine binding site on dopamine transporter in rat striatal membranes irreversibly after three washes.; assay type: cell membranes; set-up: concentration or dose not given beside the values; settings: Striatum; Membrane
[4] = biological target: Sodium-dependent dopamine transporter (Rattus norvegicus) (UniProt P23977); assay: In vitro ability to inhibit the [3H]WIN-35428 binding to cocaine binding site on dopamine transporter in rat striatal membranes irreversibly after one wash.; assay type: cell membranes; set-up: concentration or dose not given beside the values; settings: Striatum; Membrane
[5] = biological target: Sodium-dependent dopamine transporter (Rattus norvegicus) (UniProt P23977); assay: In vitro ability to inhibit the [3H]WIN-35428 binding to cocaine binding site on dopamine transporter in rat striatal membranes irreversibly after no wash.; assay type: cell membranes; set-up: concentration or dose not given beside the values; settings: Striatum; Membrane

Sodium-dependent dopamine transporter, sequence (P23977 whole entry): as above

CN1C2CC[C@@H]1C[C@H](c1ccc(Cl)cc1)[C@@H]2C(=O)OCCc1ccc([N+](=O)[O-])cc1
IC50 [1]: 2.71 nM

CN1C2CC[C@@H]1C[C@H](c1ccc(Cl)cc1)[C@@H]2C(=O)OCCc1ccc(N=[N+]=[N-])cc1
IC50 [1]: 6.17 nM
Control [2]: 24%
Control [3]: 26%
Control [4]: 19%
Control [5]: 21%

CN1C2CC[C@@H]1C[C@H](OC(=O)c1ccccc1)[C@@H]2C(=O)OCCc1ccc(NC(=O)CBr)cc1
IC50 [1]: 61 nM
Control [2]: 33%
Control [3]: 38%
Control [4]: 34%
Control [5]: 22%

CN1C2CC[C@@H]1C[C@H](OC(=O)c1ccccc1)[C@@H]2C(=O)OCCc1ccc(N=C=S)cc1
IC50 [1]: 196 nM

COC(=O)[C@@H]1C2CC[C@H](C[C@@H]1c1ccc(N)c(I)c1)N2C
IC50 [1]: 1.35 nM

CN1C2CC[C@@H]1C[C@H](OC(=O)c1ccccc1)[C@@H]2C(=O)OCCc1ccc(N=[N+]=[N-])cc1
IC50 [1]: 227 nM
Control [2]: 45%
Control [3]: 49%
Control [4]: 30%
Control [5]: 23%

CN1C2CC[C@@H]1C[C@H](OC(=O)c1ccccc1)[C@@H]2C(=O)OCCCc1ccccc1
IC50 [1]: 139 nM

COC(=O)[C@@H]1C2CC[C@H](C[C@@H]1c1ccc(N=[N+]=[N-])c(I)c1)N2C
IC50 [1]: 4.93 nM
Control [2]: 5%
Control [3]: 5%
Control [4]: 2%
Control [5]: 0%

CN1C2CC[C@@H]1C[C@H](OC(=O)c1ccccc1)[C@@H]2C(=O)OCCc1ccccc1
IC50 [1]: 248 nM

COC(=O)[C@H]1[C@@H](OC(=O)c2ccccc2)C[C@@H]2CC[C@H]1N2C
Control [2]: 79%
Control [4]: 85%
Control [5]: 43%

CN1C2CC[C@@H]1C[C@H](OC(=O)c1ccccc1)[C@@H]2C(=O)OCCc1ccc([N+](=O)[O-])cc1
IC50 [1]: 601 nM

CN1C2CC[C@@H]1C[C@H](c1ccc(Cl)cc1)[C@@H]2C(=O)OCCc1ccc(N)cc1
IC50 [1]: 2.16 nM

CN1C2CC[C@@H]1C[C@H](OC(=O)c1ccccc1)[C@@H]2C(=O)OCCc1ccc(N)cc1
IC50 [1]: 72 nM

CN1C2CC[C@@H]1C[C@H](c1ccc(Cl)cc1)[C@@H]2C(=O)OCCc1ccc(N=[N+]=[N-])c(I)c1
IC50 [1]: 14.5 nM
Control [2]: 22%
Control [3]: 16%
Control [4]: 14%
Control [5]: 14%

CN1C2CC[C@@H]1C[C@H](c1ccc(Cl)cc1)[C@@H]2C(=O)OCCc1ccc(NC(=O)CBr)cc1
IC50 [1]: 1.73 nM
Control [2]: 26%
Control [3]: 34%
Control [4]: 23%
Control [5]: 14%

CN1C2CC[C@@H]1C[C@H](c1ccc(Cl)cc1)[C@@H]2C(=O)OCCc1ccc(N=C=S)cc1
IC50 [1]: 5.3 nM
Control [2]: 26%
Control [3]: 30%
Control [4]: 29%
Control [5]: 24%

CN1C2CC[C@@H]1C[C@H](c1ccc(Cl)cc1)[C@@H]2C(=O)OCCc1ccc(N)c(I)c1
IC50 [1]: 2.51 nM
